One series has as its target T1, Acetylcholinesterase (Rattus norvegicus, UniProt P37136).
T1 sequence (P37136 whole entry): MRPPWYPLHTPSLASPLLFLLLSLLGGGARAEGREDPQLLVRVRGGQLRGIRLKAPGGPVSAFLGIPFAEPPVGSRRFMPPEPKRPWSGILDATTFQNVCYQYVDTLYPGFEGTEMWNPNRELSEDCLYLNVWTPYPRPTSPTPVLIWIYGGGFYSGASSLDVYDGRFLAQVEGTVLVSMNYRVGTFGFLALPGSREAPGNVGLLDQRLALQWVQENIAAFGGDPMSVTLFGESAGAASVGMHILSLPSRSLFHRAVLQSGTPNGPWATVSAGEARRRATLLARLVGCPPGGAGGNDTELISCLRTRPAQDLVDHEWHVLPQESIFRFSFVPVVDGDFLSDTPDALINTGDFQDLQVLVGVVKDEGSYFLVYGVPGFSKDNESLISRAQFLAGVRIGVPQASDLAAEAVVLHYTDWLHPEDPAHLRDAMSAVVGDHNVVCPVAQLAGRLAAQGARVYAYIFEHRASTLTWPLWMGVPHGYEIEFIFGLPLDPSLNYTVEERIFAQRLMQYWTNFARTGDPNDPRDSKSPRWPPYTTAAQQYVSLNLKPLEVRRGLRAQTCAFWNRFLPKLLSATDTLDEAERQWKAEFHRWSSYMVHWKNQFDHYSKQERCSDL
Description: In vitro inhibitory activity against acetylcholinesterase using rat striatal preparations.

Series [1] is described as follows: Acute toxicity in mice was determined after oral administration. The class given is organism-based. To be noted: mouse, in vivo.
The species entered for a further series is Mus musculus. To be noted: dose 0.63 mg/kg; route subcutaneous.

In general, IC50 refers to the midpoint of a concentration-inhibition curve. Broadly, the LD50 is the dose expected to kill half of the subjects tested. A higher LD50 goes with lower toxicity.

Description for Mus musculus: Reversal of scopolamine-induced memory impairment in mice, after subcutaneous administration of 0.63 mg/kg

For `Nc1c2c(nc3ccccc13)CCCC2O.O=C(O)/C=C\C(=O)O` (stereo not drawn) [VELNACRINE MALEATE], the IC50 at Acetylcholinesterase is 4.8 µM. The median lethal dose (LD50) in series [1] is 136 mg/kg. The Reversal in the series filed under Mus musculus came out at 33%.
